The test system of one experiment is LNCaP C4-2B. As to the kind of experiment: Cytotoxicity against human LNCaP C4-2B cells incubated for 48 hrs by MTT assay. It counts as functional, cell-based. For orientation: Formazan colour is commonly taken as a measure of viable cells.
Experiment [1] concerns HCT-15. As to the kind of experiment: Cytotoxicity against human HCT-15 cells incubated for 48 hrs by MTT assay. In kind it is functional, cell-based. Particulars: HCT-15, 48 h.
Experiment [2] concerns MDA-MB-231. Description: Cytotoxicity against human MDA-MB-231 cells incubated for 48 hrs by MTT assay. It counts as functional, cell-based. Conditions: MDA-MB-231, 48 h.
A further experiment relates to L1210. As to the kind of experiment: Cytotoxicity against mouse L1210 cells. In kind it is functional, cell-based.
A short description of experiment [3]: Antiproliferative activity against human Panc-28 cells incubated for 72 hrs by MTT assay. It counts as functional, cell-based. Conditions: MDA-Panc-28, 72 h.
For experiment [4], the system named is HepG2. Description: Cytotoxicity against human HepG2 cells incubated for 48 hrs by alamarblue reagent based assay. It counts as functional, cell-based. Conditions: HepG2, 48 h. (Alamar Blue is a resazurin reagent that responds to reducing activity.)
Experiment [5] relates to MCF7. As to the kind of experiment: Cytotoxicity against human MCF7 cells incubated for 48 hrs by alamarblue reagent based assay. Particulars: MCF7, 48 h. It counts as functional, cell-based.
Experiment [6] in a line: Inhibition of PAFR in New Zealand rabbit platelets assessed as reduction in PAF-induced platelet aggregation measured within 5 mins by aggregometry analysis. Conditions: Oryctolagus cuniculus. It counts as tissue-based.
Experiment [7] in a line: Inhibition of [3H]PAF-acether binding to PAFR in rabbit platelet plasma membranes incubated for 1 hr. It counts as cell membranes, Oryctolagus cuniculus, Cell membrane.
The subject of another experiment is PANC-1. Description: Cytotoxicity against human Panc-1 cells incubated for 72 hrs by sulphorhodamine B assay. It counts as functional, cell-based. Conditions: PANC-1, 72 h. Background: In SRB staining, fixed cells bind dye roughly in proportion to their protein.
In another experiment the test system is SW1990. Description: Antiproliferative activity against human SW1990 incubated for 72 hrs by sulphorhodamine B assay. It counts as functional, cell-based. Particulars: SW1990, 72 h.
In the next experiment the test system is MDA-MB-435. Description: Antiproliferative activity against human MDA-MB-435 cells incubated for 48 hrs by [3H]-thymidine incorporation assay. In kind it is functional, cell-based.
Experiment [8] has as its system MCF7. As to the kind of experiment: Antiproliferative activity against human MCF7 cells incubated for 48 hrs by [3H]-thymidine incorporation assay. In kind it is functional, cell-based.
Another experiment concerns P388. As to the kind of experiment: Cytotoxicity against mouse P388 cells incubated for 48 hrs by MTT assay. It counts as functional, cell-based. Particulars: P388, 48 h.
In experiment [9] the test system is MDA-MB-231. As to the kind of experiment: Cytotoxicity against human MDA-MB-231 cells incubated for 72 hrs by MTT assay. It counts as functional, cell-based. Conditions: MDA-MB-231, 72 h.
Experiment [10] has as its system MCF7. As to the kind of experiment: Cytotoxicity against human MCF-7 cells incubated for 72 hrs by MTT assay. It counts as functional, cell-based. Particulars: MCF7, 72 h.
Experiment [11] relates to HCT-116. Description: Antiproliferative activity against human HCT-116 cells incubated for 72 hrs by WST-1 assay. In kind it is functional, cell-based. Conditions: HCT-116, 72 h.
The test system of experiment [12] is HepG2. Description: Cytotoxicity against human HepG2 cells by MTT assay. It counts as functional, cell-based.
Experiment [13] relates to HCT-116. As to the kind of experiment: Cytotoxicity against human HCT-116 cells by MTT assay. It counts as functional, cell-based.
The next experiment concerns BGC-823. Description: Cytotoxicity against human BGC-823 cells by MTT assay. It counts as functional, cell-based.
Another experiment relates to LNCaP. As to the kind of experiment: Cytotoxicity against human LNCAP cells incubated for 48 hrs clonogenic survival assay. In kind it is functional, cell-based. Particulars: 48 h.
The test system of a further experiment is SK-MEL-2. As to the kind of experiment: Cytotoxicity against human SK-MEL-2 cells by SRB staining assay. It counts as functional, cell-based.
Experiment [14] relates to HCT-15. Description: Cytotoxicity against human HCT-15 cells by SRB staining assay. In kind it is functional, cell-based.
In a further experiment the test system is SK-OV-3. Description: Cytotoxicity against human SK-OV-3 cells by SRB staining assay. It counts as functional, cell-based.
The test system of the next experiment is XF498. Description: Cytotoxicity against human XF498 cells by SRB staining assay. In kind it is functional, cell-based.
A further experiment has as its system A549. Description: Cytotoxicity against human A549 cells by SRB staining assay. It counts as functional, cell-based.
A further experiment has as its system A2058. As to the kind of experiment: Cytotoxicity against human A2058 cells incubated for 48 hrs by MTT assay. It counts as functional, cell-based. Particulars: A2058, 48 h.
A further experiment has as its system HT-29. As to the kind of experiment: Cytotoxicity against human HT-29 cells incubated for 48 hrs by MTT assay. In kind it is functional, cell-based. Particulars: HT-29, 48 h.

The values below come from ChEMBL document CHEMBL4706632, “Development of Potential Antitumor Agents from the Scaffolds of Plant-Derived Terpenoid Lactones” (J Med Chem, 2020).

A word on the IC50: it is the midpoint of a concentration-inhibition curve. On to `CC1(C)CCC[C@]2(C)[C@@H]1CC[C@@]13O[C@@H]1C1=C(CO)C(=O)O[C@]14O[C@@H]4[C@@H]23`, for which the values for the IC50 with LNCaP C4-2B, with HCT-15 [1] and in the experiment on MDA-MB-231 [2] were 12 µM, above 50 µM and above 50 µM, respectively.

For `C=C1[C@@H](O)[C@@]2(O)OC[C@@]34[C@H]1[C@@H](OC(=O)/C=C(\C)CCCCC)C(=O)O[C@@H]3C[C@H]1C(C)=CC(=O)[C@@H](O)[C@]1(C)[C@@H]24`, the midpoint of inhibition with L1210, the IC50, lay at 90 nM.

The molecule `CC1(C)O[C@H]2CC(=O)OC[C@]23[C@H]2CC[C@@]4(C)[C@H](C5=CC(=O)OC5O)OC(=O)[C@H]5O[C@]54[C@]2(C)C(=O)C[C@@H]13` (stereo not given in full) came in with an IC50 in experiment [3] of 22 µM.

`C/C1=C\CC[C@@]2(C)O[C@H]2[C@H]2OC(=O)C(CNC(Cc3ccc(N(CCCl)CCCl)cc3)C(=O)O)[C@@H]2CC1` (stereo not given in full): the figures for the half-inhibitory concentration (IC50) in the experiment with HepG2 [4] and in the experiment with MCF7 [5] were 260 nM and 1.8 µM, respectively.

`C[C@@H]1C(=O)O[C@H]2[C@H](O)[C@]34[C@@H]5OC(=O)[C@]3(O[C@@H]3OC(=O)[C@H](O)[C@@]34[C@H](C(C)(C)C)[C@H]5O)[C@@]12O`: the IC50 stood at 7.5 µM in experiment [6] and 17 µM in experiment [7].

Consider `COC(=O)[C@@]12OC[C@]34[C@H]([C@@H](O)[C@@H]1O)[C@@]1(C)C=C(O[C@@H]5O[C@H](CO)[C@@H](O)[C@H](O)[C@H]5O)C(=O)[C@@H](C)[C@@H]1C[C@H]3OC(=O)[C@H](OC(=O)/C=C(\C)C(C)C)[C@@H]24`, for which the IC50 in the experiment with PANC-1 and with SW1990 was above 10000 nM each time.

As to `CC1(C)O[C@H]2CC(=O)OC[C@]23[C@H]2CC[C@@]4(C)[C@H](c5ccoc5)OC(=O)[C@H]5O[C@]54[C@]2(C)C(=O)C[C@@H]13` [LIMONIN], the 50% inhibitory concentration (IC50) in the experiment on MDA-MB-435 is 26 µM; in [3], 42 µM; with MCF7 [8], 4.3 µM.

Turning to `C/C1=C\CC[C@@]2(C)O[C@H]2[C@H]2OC(=O)C(CNc3ccn(C4OC(CO)[C@H](O)[C@@H]4O)c(=O)n3)[C@@H]2CC1` (stereo not given in full), the IC50 in the experiment on HepG2 [4] came to 240 nM; with MCF7 [5], 5.2 µM.

The molecule `CC(C)[C@H]1OC(=O)C=C2[C@@]13O[C@@H]3[C@H]1OC(=O)[C@@]3(C)CCC[C@@]2(C)[C@@H]13` displayed a concentration for half-maximal inhibition (IC50) in the experiment on P388 of 240 nM.

As for `COC(=O)[C@@]12OC[C@]34[C@H]([C@@H](O)[C@@H]1O)[C@@]1(C)CC(=O)C(O)=C(C)[C@@H]1C[C@H]3OC(=O)[C@H](OC(=O)C=C(C)C)[C@@H]24`, the IC50 turned out to be 81 nM in the experiment on MDA-MB-231 [9]; 83 nM in the experiment on MCF7 [10]; 360 nM in the experiment with PANC-1; 100 nM in the experiment with SW1990; 67 nM in the experiment with HCT-116 [11].

Turning to `CC(C)[C@]12O[C@H]1[C@@H]1O[C@]13[C@]1(O[C@H]1C[C@H]1C4=C(C(=O)OC4)[C@@H](O)C[C@@]13C)[C@@H]2O` [TRIPDIOLIDE], the 50% inhibitory concentration (IC50) in the experiment on HepG2 [12] was 1700 nM; in the experiment on HCT-116 [13], 730 nM; in the experiment with BGC-823, 910 nM.

The molecule `C/C=C(/C)C(=O)O[C@H]1C(C)=C2[C@H]([C@@H]1OC(=O)CCCCCCC)[C@@](C)(OC(C)=O)C[C@H](OC(=O)CCCCCCCCCCCNC(=O)[C@@H](N)CC(C)C)[C@@]1(O)[C@H]2OC(=O)[C@@]1(C)O` came in with an IC50 with LNCaP of 14 nM.

For `CC1(C)O[C@H]2CC(=O)OC[C@]23[C@H]2CC[C@@]4(C)[C@H](C5=CC(O)OC5=O)OC(=O)[C@H]5O[C@]54[C@]2(C)C(=O)C[C@@H]13` (stereo not given in full), it took 18 µM to reach half-maximal inhibition in experiment [3] (IC50).

With `CC(=O)OC1C(=O)[C@@H]2[C@@]34COC(O)[C@@](C)([C@H](OC(C)=O)C[C@@H]3O)[C@@H]4C[C@@H](O)[C@@]2(C)[C@@]23O[C@@H]2C[C@@H](c2ccoc2)[C@]13C` (stereo not given in full), the half-maximal inhibitory concentration (IC50) in the experiment on SK-MEL-2 was 1.2 nM; with HCT-15 [14], 70 nM; in the experiment with SK-OV-3, 35 nM; in the experiment with XF498, 12 nM; with A549, 17 nM.

As for `C=C1CC[C@@H]2[C@](C)(COC(=O)CN(C)c3ccc([N+](=O)[O-])c4nonc34)[C@H](O)CC[C@@]2(C)[C@@H]1C/C=C1/C(=O)OC[C@H]1OC(C)=O`, the concentration for half-maximal inhibition (IC50) was 4.5 µM in the experiment with A2058, 12 µM in the experiment on HT-29 and 9.8 µM in the experiment on MDA-MB-231 [2].
